The results in this text go back to patent publication US11129801B2 (SigmaThera SAS, priority 2016, dated 2021).

This experiment deals with rat motor neurons (Islet 1/2 positive neurons). Kind of experiment: Survival of primary motor neurons injured by glutamate. The class given is cell-based. The settings on record: glutamate 40 μM, 20 min. The protocol: Rat motor neurons were cultured as described (Camu et al. (1994) Journal of the neurological sciences 124 Suppl: 73-74). Briefly, pregnant female rats of 14 days gestation were killed by cervical dislocation (Rats Wistar; Janvier Lab) and the foetuses were removed from the uterus. The spinal cord were removed and placed in ice-cold PBS. Tissue segments were spun down, incubated in 0.025% (w/v) of trypsin-EDTA (Panbiotech, Ref: P10-023100) for 10 min at 37° C. Fragments were transferred in 1 mL of complete Leibovitz medium containing BSA (0.4%, Dustcher, Ref: P06-1391100) and DNasel grade II (0.1 mg/ml, Panbiotech, ref: P60-37780100). Cells were then dissociated by several rounds of trituration, centrifuged for 5 min at 470 g on a 4% BSA cushion and re-suspended in 2 mL of supplemented L15 medium. Motor neurons were counted in a Neubauer cytometer using the trypan blue exclusion test. Cells were cultured at a density of 1.5×10^4 cells/well of a 96 wells plate on astrocyte monolayer in Neurobasal (Invitrogen, ref: 21103) containing 1% of B27 (Invitrogen, ref: 17504), 2 mM L-Glutamine (Panbiotech, ref: P04-80100), 1% of PS solution, […] 2-mercaptoethanol (Invitrogen, ref: 31350-010), 2% Horse serum (Invitrogen, Ref: 16050-122), 1 ng/ml of Brain-derived neurotrophic factor (BDNF, PanBiotech, Ref: CB-1115002) and 1 ng/ml of Glial derived neurotrophic factor (GDNF, Dustcher, Ref: CB-1116001) at 37° C. in a humidified air (95%)/CO2 (5%) atmosphere.
Briefly, after 10 days of culture, medium was removed and 100 μL of fresh medium (supplemented Neurobasal without neurotrophic factor) without or with test compound was added 1 h before glutamate intoxication. Then, Glutamate at 40 μM in absence or presence of test compound will be added in the culture medium and incubated 20 min. The cells were rinsed with incubation solution (3 wash-outs) and let in the neurobasal medium containing compounds or control medium for 24 h.
[…]_Control medium stimulated with vehicle medium […]
The data were expressed as mean±s.e.m (of 6 data per condition, 1 culture). […]

With `CCC(C/C=C/c1ccccc1)(c1ccccc1)N(C)CC1CC1` (single isomer, unassigned; (+)) [igmesine, (+)-(E)-N-(cyclopropylmethyl)-N-methyl-3,6-diphenylhex-5-en-3-amine], the “protective effect on motor neuron survival” value (0.1 μM, 0.3 μM, 1 μM, 3 μM and 10 μM) is “significant protective effect”. Moreover, the “Islet 1/2 positive neurons” value (10 μM) is 126 % of the control.

B1: BDNF: Brain-derived neurotrophic factor, used as a reference compound (protein, UniProt P23560 19-247, looked up)
Neurotrophic factor BDNF …: APMKEANIRGQGGLAYPGVRTHGTLESVNGPKAGSRGLTSLADTFEHVIEELLDEDQKVRPNEENNKDADLYTSRVMLSSQVPLEPPLLFLLEEYKNYLDAANMSMRVRRHSDPARRGELSVCDSISEWVTAADKKTAVDMSGGTVTVLEKVPVSKGQLKQYFYETKCNPMGYTKEGCRGIDKRHWNSQCRTTQSYVRALTMDSKKRIGWRFIRIDTSCVCTLTIKRGR
As for B1, the “Islet 1/2 positive neurons” value (50 ng/mL) is 96.43 % of the control.
